Each structure is given as a SMILES string. Where a name gives a salt, the structure may show the parent alone.

Here are results for twelve compounds from patent US6294580A, “Substituted 4-hydroxy-phenylalcanoic acid derivatives with agonist activity to PPAR-gamma” (Glaxo Wellcome Inc., priority 1996, dated 2001).

The first data set deals with PPARg. The experiment in a line: PPARgamma Transient Cotransfection Assay. The note with it: CAT reporter. The class given is cell-based.
With `COC(=O)C(Cc1ccc(OCc2ccccc2)cc1)Nc1ccccc1C(=O)Nc1ccccc1` (racemic) [Example 6, 3-(4-Benzyloxy-phenyl)-2-(phenylcarbamoyl-phenylamino)-propionic acid methyl ester], the “PPARg Fold. Act.” value worked out at 4.
On to `O=C(C1=C(N[C@@H](Cc2ccc(OCc3ccccc3)cc2)C(=O)O)CCCC1)c1ccccc1` [Example 3, 2(S)-(2-Benzoyl-cyclohex-1-enylamino)-3-(4-benzyloxy-phenyl)-propionic acid dicyclohexylamine salt], for which the “PPARg Fold. Act.” value is given as 3.
Still for that read-out and setting: the figure for `COC(=O)C(Cc1ccc(OCc2ccccc2)cc1)Nc1ccccc1C(=O)N1CCCCC1` (stereo not drawn) [Example 7, 3-(4-Benzyloxy-phenyl)-2-[2-(piperidine-1-carbonyl)-phenylamino]-propionic acid methyl ester] is 5.

Staying with this data set, now noted: CAT reporter, read-out: PPARg EC50.
Regarding `CN(CCOc1ccc(C[C@H](NC(=O)c2coc3ccccc3c2=O)C(=O)O)cc1)c1nc2ccccc2o1` [Example 28, 3-{4-[2-(Benzoxazol-2-yl-methyl-amino)-ethoxy]-phenyl}-2(S)-[(4-oxo-4H-chromene-3-carbonyl)-amino]-propionic acid], the EC50 amounted to 0.025 µM.
Same read-out and setting: under `COC(=O)[C@H](Cc1ccc(OCCc2nc(N3CCN(C)CC3)sc2C)cc1)Nc1ccccc1C(=O)c1ccccc1` [Example 42] stands 0.005 µM; under `CCN(CCOc1ccc(C[C@H](Nc2ccccc2C(=O)OC)C(=O)O)cc1)c1cccc(C)c1` [Example 71], 0.15 µM.
On the same count and under the same terms, the figure for `Cc1oc(-c2ccccc2)nc1CCOc1ccc(CC(Nc2ccccc2C(=O)c2cccc(C(=O)O)c2)C(=O)O)cc1` (stereo not drawn) [Example 84] is 0.055 µM; for `Cc1oc(-c2ccccc2)nc1CCOc1ccc(CC(Nc2ccccc2C(=O)c2cccc(CO)c2)C(=O)O)cc1` (stereo not drawn) [Example 85, 2-[2-(3-hydroxymethyl-benzoyl)-phenylamino]-3-{4-[2-(5-methyl-2-phenyl-oxazol-4-yl)-ethoxy]-phenyl}-propionic acid] it is 0.02 µM.
On the same count and under the same terms, under `CNC(=O)c1ccccc1N[C@@H](Cc1ccc(OCCc2nc(-c3ccccc3)oc2C)cc1)C(=O)O` [Example 91, 2-(S)-(1-carboxy-2-{4-{2-(5-methyl-2-phenyl-oxazol-4-yl)ethoxy]-phenyl}-ethylamino)-benzoic acid methyl amide] stands 0.02 µM.

Staying with this data set, now noted: read-out: PPARg EC50, CAT reporter.
As for `CN(CCOc1ccc(CC(Nc2ccccc2C(=O)c2ccccc2)C(=O)O)cc1)c1ccccn1` (stereo not drawn) [Example 11, 2-(2-Benzoyl-phenylamino)-3-{4-[2-(methyl-pyridin-2-yl-amino)-ethoxy]-phenyl}-propionic acid], the concentration giving a half-maximal response (EC50) was determined as 0.01 µM.
The same measure, in the same setting: under `COC(=O)c1ccccc1N[C@@H](Cc1ccc(OCCc2nc(-c3ccccc3)oc2C)cc1)C(=O)O` [Example 88, 2-(S)-(1-carboxy-2-{4-{2-(5-methyl-2-phenyl-oxazol-4-yl)-ethoxy]-phenyl}-ethylamino)-benzoic acid methyl ester] stands 0.0005 µM; under `Cc1sc(N2CCN(S(C)(=O)=O)CC2)nc1CCOc1ccc(C[C@H](Nc2ccccc2C(=O)c2ccccc2)C(=O)O)cc1` [Example 103, 2(S)-(2-benzoyl-phenylamino)-3-(4-{2-[5-methyl-2-(4-methylsulfonyl-piperazin-1-yl)-thiazol-4-yl]-ethoxy}-phenyl)-propionic acid], 0.18 µM.

One may read the EC50 as the concentration giving half of the maximal effect.
